Data published in patent publication US20120040950A1, “ISOINDOLINONE INHIBITORS OF PHOSPHATIDYLINOSITOL 3-KINASE” (VERTEX PHARMACEUTICALS INCORPORATED, priority 2009, published 2012).
pKi: −log10 of the molar value.

Experiments:
PI3K-gamma = PI3K-gamma (Homo sapiens, UniProt P48736); test: PI3K Inhibition Assay; type: biochemical
Description: Using a Biomek FX from Beckman Coulter, 1.5 μL of each of ten 2.5-fold serial dilutions of a compound of the invention in 100% DMSO was added to an individual well (hereafter, “test well”) in a 96 well polystyrene plate [Corning, Costar Item No. 3697]. One test well also contained 1.5 μL of DMSO with no compound. […] Using a Titertek Multidrop, 50 μL of Reaction Mix [100 mM HEPES pH 7.5, 50 mM NaCl, 10 mM DTT, 0.2 mg/mL BSA, 60 μM phosphatidylinositol(4,5)bisphosphate diC16 (PI(4,5)P2; Avanti Polar Lipids, Cat. No. 840046P) and PI3K isoform of interest (see Table 3 for isoform concentrations)] was added to each well. To initiate the reaction, 50 μL of ATP Mix [20 mM MgCl2, 6 μM ATP (100 μCi/μmole ^33P-ATP)] was added each well, followed by incubating the wells for 30 min. at 25° C. Final concentrations in each well were 50 mM HEPES 7.5, 10 mM MgCl2, 25 mM NaCl, 5 mM DTT, 0.1 mg/mL BSA, 30 μM PI(4,5)P2, 3 μM ATP, and the PI3K isoform of interest (see Table 2). Final compound concentrations in each well ranged from 10 μM to 1 nM.
After incubation, the reactions in each well were quenched by addition of 50 μL of stop solution [30% TCA/Water, 10 mM ATP]. […] 50 μL of scintillation fluid was added to each well and the plate read on a Perkin-Elmer TopCount™ NXT liquid scintillation counter to obtain ^33P-counts representing inhibition values. […]

activated microglia = test: Microglia Activation Assay (LPS-injected mice, Iba1 IHC of brain); type: in vivo, Female C57B1/6J mice; conditions: 10 mg/kg b.i.d. orally by gavage, 4 doses, LPS 0.5 mg/kg i.p. for three days
Description: Female C57B1/6J mice (7 weeks old) were purchased from Jackson Laboratory (Maine, US). Animals were acclimated for a week at standard laboratory conditions (12 hrs light cycles) with free access to rodent chow and water. All procedures were in accordance with the National Institute of Health Guidelines for the care and Use of Laboratory Animals and were approved by IACUCC. The endotoxin Lipopolysaccharide (LPS) (E. coli 011:B4, cat#437627) was purchased from Calbiochem. LPS was dissolved in PBS buffer at a concentration of 0.05 mg/ml and stored in frozen aliquots. At the start of the study, mice received an intraperitoneal (i.p.) injection of LPS (0.5 mg/kg) for three consecutive days. Therapeutic treatment with VRT compounds was started together with the 2nd LPS administration and maintained throughout the study. Compound was dosed twice a day orally by gavage for a total of 4 doses. 24 h following the last LPS injection, and 2 hrs following the last VRT dose, animals were sacrificed by CO2 asphyxiation. […]
Digital images were captured using the Aperio ScanScope Slide Scanner (Aperio Technologies, Vista, Calif.). Images were captured at 20× optical magnification, and analyzed using the software Definiens Developer XD. […] Compound efficacy was calculated as percent decrease in number of activated microglia relative to vehicle control.

PI3K-gamma, sequence (P48736 whole entry, species assumed, canonical isoform): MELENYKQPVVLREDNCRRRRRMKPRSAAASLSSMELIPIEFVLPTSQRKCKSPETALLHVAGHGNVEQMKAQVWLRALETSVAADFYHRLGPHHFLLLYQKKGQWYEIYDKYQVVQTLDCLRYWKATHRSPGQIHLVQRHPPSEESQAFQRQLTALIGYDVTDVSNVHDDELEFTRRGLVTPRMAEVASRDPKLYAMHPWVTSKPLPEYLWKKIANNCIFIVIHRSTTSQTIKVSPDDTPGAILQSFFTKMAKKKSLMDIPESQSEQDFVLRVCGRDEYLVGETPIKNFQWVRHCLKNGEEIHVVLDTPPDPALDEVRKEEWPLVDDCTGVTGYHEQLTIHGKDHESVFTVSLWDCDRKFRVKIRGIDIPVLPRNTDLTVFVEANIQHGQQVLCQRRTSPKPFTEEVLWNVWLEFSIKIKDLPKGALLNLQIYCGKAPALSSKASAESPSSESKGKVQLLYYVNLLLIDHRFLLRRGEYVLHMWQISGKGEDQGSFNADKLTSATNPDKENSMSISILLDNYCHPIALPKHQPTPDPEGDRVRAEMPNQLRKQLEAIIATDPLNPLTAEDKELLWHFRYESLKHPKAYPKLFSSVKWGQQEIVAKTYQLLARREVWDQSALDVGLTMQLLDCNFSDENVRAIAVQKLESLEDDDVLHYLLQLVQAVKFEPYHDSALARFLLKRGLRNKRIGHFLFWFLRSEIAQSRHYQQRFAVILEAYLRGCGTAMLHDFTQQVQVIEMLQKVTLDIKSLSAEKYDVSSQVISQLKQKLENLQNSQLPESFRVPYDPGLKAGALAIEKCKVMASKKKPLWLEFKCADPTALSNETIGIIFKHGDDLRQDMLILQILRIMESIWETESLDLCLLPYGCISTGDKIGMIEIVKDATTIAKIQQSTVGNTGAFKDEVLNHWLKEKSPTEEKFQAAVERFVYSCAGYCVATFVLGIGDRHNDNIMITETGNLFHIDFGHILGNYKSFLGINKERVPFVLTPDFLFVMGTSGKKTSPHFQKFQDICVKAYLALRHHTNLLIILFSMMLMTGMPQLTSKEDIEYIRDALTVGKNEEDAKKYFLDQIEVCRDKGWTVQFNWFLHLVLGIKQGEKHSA

| pKi (PI3K-gamma) | SMILES | percent decrease in number of activated microglia relative to vehicle control (activated microglia) |
| --- | --- | --- |
| 5.60 to 6.30 | COc1cc(-c2nc3c(cc2C)C(=O)N(c2cn[nH]c2)C3)cnc1OC [Compound 238, 2-(5,6-dimethoxypyridin-3-yl)-3-methyl-6-(1H-pyrazol-4-yl)-6,7-dihydro-5H-pyrrolo[3,4-b]pyridin-5-one] | – |
| – | Cc1cc(-c2cncc(OC(F)F)c2)nc2c1C(=O)N(c1cnn(CC(F)(F)F)c1)C2 [Compound 271] | 39% |
